Source: the NIST ThermoML archive (doi:10.1021/acs.jced.6b00399)
Structures can show the parent of a compound that is named as a salt. Numbers after ± are expanded uncertainties.

Tests used:
[1] = Liquid; for mass density: 101.3 kPa, Pycnometric method; for viscosity: 298.15 K, 101.33 kPa, Capillary tube (Ostwald / Ubbelohde) method
[2] = xn = mol fraction of the nth substance listed; conditions: 101.3 kPa, Liquid, x1 = 0.66; for mass density: Pycnometric method

Compound	mass density ([1]; 293.15 K) [kg/m3]	viscosity [1] [mPa·s]	mass density ([1]; 303.15 K) [kg/m3]	mass density ([1]; 313.15 K) [kg/m3]	mass density ([1]; 323.15 K) [kg/m3]	mass density ([2]; 293.15 K) [kg/m3]	viscosity ([2]; 298.15 K, Capillary tube (Ostwald / Ubbelohde) method) [mPa·s]	mass density ([2]; 303.15 K) [kg/m3]	mass density ([2]; 313.15 K) [kg/m3]	mass density ([2]; 323.15 K) [kg/m3]
CC1(C)OCC(CO)O1 (stereo not given) [2,2-dimethyl-1,3-dioxolane-4-methanol]	1067.8 ± 2.4	10.06 ± 0.15	1058.9 ± 2.4	1049.9 ± 2.4	1040.8 ± 2.4					
CCOC(=O)CC(CC(=O)OCC)(OC(C)=O)C(=O)OCC [triethyl acetyl citrate]	1142.1 ± 3.4	46.55 ± 1.2	1134.1 ± 3.3	1124.2 ± 3.3	1112.9 ± 3.3					
CCOC(=O)CC(O)(CC(=O)OCC)C(=O)OCC [triethyl citrate]	1137.1 ± 2.6	32.1 ± 0.64	1131.3 ± 2.6	1122.4 ± 2.6	1114 ± 2.5					
CC(=O)OCC(COC(C)=O)OC(C)=O [glyceryl triethanoate]	1158.3 ± 2.5	16.36 ± 0.68	1147.3 ± 2.4	1136.6 ± 2.4	1125.7 ± 2.4					
OC1COCOC1 [1,3-dioxan-5-ol] + OCC1COCO1						1215.1 ± 2.8	20.05 ± 0.84	1206.7 ± 2.8	1198.2 ± 2.8	1189.7 ± 2.8
